Source: US20260034094A1, “COMPOSITIONS AND METHODS FOR INDUCING FERROPTOSIS” (Kojin Therapeutics, Inc., priority 2022, published 2026)

Columns and labels:
RKN cells = assay: RKN cell profiling assay (cell viability, CellTiter-Glo); assay type: cell-based; conditions: cell viability, read-out: Cell Killing EC50
Description: RKN cells were suspended in assay medium (F-12 medium supplemented with 10% FBS and penicillin/streptomycin) and seeded at 1,000 cells per well (30 μL total volume) in opaque white 384-well plates (Corning). Cells were allowed to adhere for 24 h at 37° C. (95% humidity, 5% CO2) and then exposed to compounds disclosed herein for 72 h, or in the present case, 96 h. DMSO stock solutions of compounds were added to cells using a D300e Digital Dispenser (Tecan). The final DMSO concentration in each well was normalized to 0.5% (v/v) after compound treatment. Cell viability was measured using CellTiter-Glo (Promega). After incubation for 15 min at room temperature, luminescence was measured using a PHERAstar FSX microplate reader (BMG Labtech). Ferroptosis rescue experiments were performed as described previously using cells treated with ferrostatin-1 (fer-1, 1.5 μM) when seeding assay plates. Dose-response data were analyzed to determine EC50 values with GraphPad Prism 9 software using a four-parameter logistic equation or CDD Vault (Collaborative Drug Discovery) using the Levenberg-Marquardt algorithm.

human recombinant GCL = human recombinant GCL (Homo sapiens (Human), UniProt P48506); assay: GCL enzyme profiling assay (ADP-Glo luminescence); assay type: biochemical; conditions: human recombinant GCL, ADP-Glo; read-out: GCL IC50
Description: The GCL enzyme assay was run in 50 mM HEPES, pH 7.5, containing 150 mM NaCl, 30 mM MgCl2, 0.5 mM EDTA, 1 mM DTT, 0.1 mg/mL BSA, and 0.02% or in the present case 0.2% F-127 in a total assay volume of 10 μL or 10 mL. Compound in pure DMSO was stamped in assay plates (Greiner black 384-well) or appropriate containers using a D300e digital dispenser (TECAN) and the final DMSO concentration was normalized to 1%. A 5 mL, or in the present case, 5 μL mixture of human recombinant GCL (final concentration: 5 nM) and ATP (final concentration: 0.6 mM) was added and the solution was incubated at room temperature (22° C.) for 1 h. The GCL enzyme reaction was initiated by addition of a 5 μL mixture of mono g-glutamate or in the present example, monosodium glutamate (final concentration: 1 mM) and a-aminobutyrate or α-aminobutyrate (final concentration: 1.2 mM). The reaction was stopped after 1 h or in the present case, 2 h by addition of 5 mL, or in the present case, 5 μL ADP GLO Reagent (Promega). The resulting solution was incubated for 2 h at room temperature. This was then followed by addition of 5 mL, or in the present case, 5 μL ADP GLO Detection. After incubation at room temperature for 30 min, the plates were read on a plate reader (PheraStar) using a luminescence protocol to quantify the GCL enzyme activity from each reaction solution. The data was analyzed using a four-parameter logistic equation to calculate IC50.

human recombinant GCL, sequence (P48506 whole entry): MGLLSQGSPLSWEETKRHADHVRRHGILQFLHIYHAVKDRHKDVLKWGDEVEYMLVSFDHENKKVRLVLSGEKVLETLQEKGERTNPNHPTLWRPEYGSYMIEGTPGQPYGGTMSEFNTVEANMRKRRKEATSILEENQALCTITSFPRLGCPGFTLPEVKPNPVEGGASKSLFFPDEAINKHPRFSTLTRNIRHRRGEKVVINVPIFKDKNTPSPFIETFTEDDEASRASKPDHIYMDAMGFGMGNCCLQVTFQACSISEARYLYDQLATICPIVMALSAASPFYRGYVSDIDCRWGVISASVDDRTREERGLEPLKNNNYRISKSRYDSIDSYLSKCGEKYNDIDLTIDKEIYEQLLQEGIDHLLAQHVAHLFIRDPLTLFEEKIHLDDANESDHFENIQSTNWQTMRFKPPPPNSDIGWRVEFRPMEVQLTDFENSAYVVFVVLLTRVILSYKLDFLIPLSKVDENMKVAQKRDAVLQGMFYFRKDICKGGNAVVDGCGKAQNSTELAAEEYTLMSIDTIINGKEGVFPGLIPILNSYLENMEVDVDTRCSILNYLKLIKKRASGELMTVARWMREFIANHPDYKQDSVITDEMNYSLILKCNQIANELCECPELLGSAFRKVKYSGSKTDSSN

Molecule `N=S(=O)(CC[C@H](N)C(=O)O)CCC(O)(c1cnc(-c2ccc(Cl)cc2Cl)nc1)C(F)(F)F` (stereo partly drawn) [Compound 366] has an EC50 (RKN cells) of less than 1 mM.
Molecule `N=S(=O)(CC[C@H](N)C(=O)O)CCC(O)(c1cnc(-c2ccc(Cl)cc2Cl)cn1)C(F)(F)F` (stereo partly drawn) [Compound 367] has an EC50 (RKN cells) of less than 1 mM.
`N=S(=O)(CC[C@H](N)C(=O)O)CCC(O)(c1ccc2ccccc2n1)C(F)(F)F` (stereo partly drawn) [Compound 373] gave an EC50 (RKN cells) of less than 1 mM.
Molecule `N=S(=O)(CCC(c1ccc2[nH]nnc2c1)C(F)(F)F)CC[C@H](N)C(=O)O` (stereo partly drawn) [Compound 393] has an EC50 (RKN cells) of no less than 1 mM.
Molecule `N=S(=O)(CCC(c1ccccc1O)C(F)(F)F)CC[C@H](N)C(=O)O` (stereo partly drawn) [Compound 397] has an EC50 (RKN cells) of less than 1 mM.
`N=S(=O)(CCC(c1ccc2[nH]cnc2c1)C(F)(F)F)CC[C@H](N)C(=O)O` (stereo partly drawn) [Compound 399] was tested, and the EC50 (RKN cells) was no less than 1 mM.
`N=S(=O)(CC[C@H](N)C(=O)O)CCC1(c2ccc(Oc3ccc(Cl)cc3Cl)cc2)CCC1` (stereo partly drawn) [Compound 403] gave an EC50 (RKN cells) of no less than 1 mM.
`N=S(=O)(CCC(N1CCN(c2ccc(Cl)cc2Cl)CC1)C(F)(F)F)CC[C@H](N)C(=O)O` (stereo partly drawn) [Compound 423] was tested, and the EC50 (RKN cells) was less than 1 mM.
`Cc1ccccc1-c1ccc(C(O)(CCS(=N)(=O)CC[C@H](N)C(=O)O)C(F)(F)F)cc1` (stereo partly drawn) [Compound 429] gave an EC50 (RKN cells) of less than 1 mM.
`Cc1cc(Cl)ccc1-c1ccc(C(O)(CCS(=N)(=O)CC[C@H](N)C(=O)O)C(F)(F)F)cc1` (stereo partly drawn) [Compound 430] gave an EC50 (RKN cells) of less than 1 mM.
`N=S(=O)(CC[C@H](N)C(=O)O)CCC(O)(c1ccc(-c2ccc(Cl)cc2)cc1)C(F)(F)F` (stereo partly drawn) [Compound 431] was tested, and the EC50 (RKN cells) was less than 1 mM.
`Cc1ccc(-c2ccc(C(O)(CCS(=N)(=O)CC[C@H](N)C(=O)O)C(F)(F)F)cc2)c(Cl)c1` (stereo partly drawn) [Compound 432] was tested, and the EC50 (RKN cells) was less than 1 mM.
With `Cn1ncc(-c2ccc(C(O)(CCS(=N)(=O)CC[C@H](N)C(=O)O)C(F)(F)F)cc2)cc1=O` (stereo partly drawn) [Compound 433] the EC50 (RKN cells) was no less than 1 mM.
With `N=S(=O)(CC[C@H](N)C(=O)O)CCC(O)(c1cccc(-c2ccccc2)c1)C(F)(F)F` (stereo partly drawn) [Compound 435] the EC50 (RKN cells) was no less than 1 mM.
`Cc1ccc(-c2ccc(C(O)(CCS(=N)(=O)CC[C@H](N)C(=O)O)C(F)(F)F)cc2)c(F)c1` (stereo partly drawn) [Compound 437] was tested, and the EC50 (RKN cells) was less than 1 mM.
With `Cc1cc(C(O)(CCS(=N)(=O)CC[C@H](N)C(=O)O)C(F)(F)F)ccc1-c1ccc(Cl)cc1Cl` (stereo partly drawn) [Compound 443] the EC50 (RKN cells) was less than 1 mM.
`N=S(=O)(CC[C@H](N)C(=O)O)CCC(O)(c1ccc(-c2ccc(Cl)cc2Cl)cn1)C(F)(F)F` (stereo partly drawn) [Compound 465] gave an EC50 (RKN cells) of no less than 1 mM.
In the case of `N=S(=O)(CC[C@H](N)C(=O)O)CCC(O)(c1ccc(-c2ccc(Cl)cc2Cl)cn1)C(F)(F)F` (stereo partly drawn) [Compound 466], the EC50 (RKN cells) is reported as less than 1 mM.
Molecule `N=S(=O)(CC[C@H](N)C(=O)O)CCC(O)(c1ncc(-c2ccccc2)cn1)C(F)(F)F` (stereo partly drawn) [Compound 467] has an EC50 (RKN cells) of less than 1 mM.
Work on `N=S(=O)(CC[C@H](N)C(=O)O)CCC(O)(c1ncc(-c2ccc(Cl)cc2Cl)cn1)C(F)(F)F` (stereo partly drawn) [Compound 468] yielded an EC50 (RKN cells) of less than 1 mM.
Molecule `N[C@@H](CCS(=O)(=O)CCC(O)(c1ncc(-c2ccc(Cl)cc2Cl)cn1)C(F)(F)F)C(=O)O` (stereo partly drawn) [Compound 470] has an EC50 (RKN cells) of no less than 1 mM.
In the case of `Cc1ccccc1-c1ccc(C(O)(CCS(=N)(=O)CC[C@H](N)C(=O)O)C(F)(F)F)nc1` (stereo partly drawn) [Compound 471], the EC50 (RKN cells) is reported as less than 1 mM.
`Cn1cc(-c2ccc(C(O)(CCS(=N)(=O)CC[C@H](N)C(=O)O)C(F)(F)F)nc2)cn1` (stereo partly drawn) [Compound 472] showed an EC50 (RKN cells) of no less than 1 mM.
Molecule `Cc1cc(Cl)ccc1-c1cnc(C(O)(CCS(=N)(=O)CC[C@H](N)C(=O)O)C(F)(F)F)nc1` (stereo partly drawn) [Compound 474] has an EC50 (RKN cells) of less than 1 mM.
In the case of `N=S(=O)(CC[C@H](N)C(=O)O)CCC(O)(c1ccc(C2CCCCC2)cn1)C(F)(F)F` (stereo partly drawn) [Compound 476], the EC50 (RKN cells) is reported as less than 1 mM.
With `N=S(=O)(CC[C@H](N)C(=O)O)CCC(O)(c1ccc(-c2ccco2)cn1)C(F)(F)F` (stereo partly drawn) [Compound 481] the EC50 (RKN cells) was less than 1 mM.
`C#CCNC(=O)[C@@H](N)CCS(=N)(=O)CCCC` (stereo partly drawn) [compound 493] was tested, and the IC50 (human recombinant GCL) was greater than 2 mM.
